Source: US8178534B2, “cMET inhibitors” (Takeda Pharmaceutical Company Limited, priority 2008, dated 2012)
Structures can show the parent of a compound that is named as a salt.

Tests used:
A549 = assay: Inhibition of cell viability (MTS), A549 (negative control line); assay type: cell-based; conditions: A549 cells (negative control), 96 hours incubation
Protocol: (§1) Cells were maintained at 37° C. in a humidified atmosphere containing 5%-8% CO2 following the instructions of the supplier (American Type Culture Collection (Rockville, Md.)). Inhibition of cell viability was determined for a panel of tumor cell lines (MKN45, EBC1 and A549), using the soluble tetrazolium salt, MTS (Promega, Madison, Wis.). Cells were seeded at 2,000-7,500 cells/well in 96-well tissue culture plates and were allowed to attach for approximately 24 hours prior to addition of compounds or DMSO vehicle. […] Cells were treated in duplicate with test compounds. Compounds were serially diluted (1:2.5) from column 1 to 11 and column 12 contained DMSO vehicle. Compounds were diluted into cell growth medium then compound solution was added to cells. Equal amounts of DMSO were added to cells (final concentration is 0.5%). After background correction and normalization against DMSO-treated cells, EC50 values were calculated using non-linear curve-fitting of the cell viability as a function of compound concentration. The MKN45 and EBC1 cell lines contain high levels of phospho-Met and are dependent on cMET for proliferation, whereas the A549 line is used as negative control.
(§2) EC50 values may be calculated by non-linear curve fitting of the compound concentrations and fluorescence intensities to the standard EC50 equation.

[1] = target: T1, cMET enzyme (amino acids 1023-1360) (Homo sapiens, UniProt P08581); assay: Determination of inhibition of cMET (capillary electrophoresis, phosphorylated peptide product); assay type: biochemical; conditions: 1.2 nM cMET, 50 μM ATP, 2 μM FL-2 peptide, 2 hours room temperature
T1 construct: The cMET enzyme (amino acids 1023-1360) nominally at 24 μM was held at −80° C. until use; His tag (N, cleaved yes); made in house; host or cells: Sf9 cells
T1 sequence (P08581 1023-1360): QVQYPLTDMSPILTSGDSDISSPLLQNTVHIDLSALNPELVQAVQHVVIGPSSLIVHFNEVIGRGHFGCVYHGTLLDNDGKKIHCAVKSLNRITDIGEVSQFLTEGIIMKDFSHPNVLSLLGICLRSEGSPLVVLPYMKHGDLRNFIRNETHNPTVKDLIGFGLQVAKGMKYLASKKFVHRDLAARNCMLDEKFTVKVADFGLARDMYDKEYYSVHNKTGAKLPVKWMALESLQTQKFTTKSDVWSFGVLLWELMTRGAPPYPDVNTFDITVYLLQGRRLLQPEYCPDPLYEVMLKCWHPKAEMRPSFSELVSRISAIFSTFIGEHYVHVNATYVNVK
Protocol: The inhibitory property of a compound relative to cMET catalysis was determined by use of capillary electrophoresis with fluorescence quantification of a phosphorylated peptide product for cMET. The cMET enzyme (amino acids 1023-1360) nominally at 24 μM was held at −80° C. until use, in a buffer containing 25 mM Tris-HCl pH 8.5, 150 mM NaCl, 3 mM DTT and 10% glycerol. […] Following purification, the tag was removed and enzyme concentrated. […] To activate the enzyme fully, frozen cMET was thawed quickly and activated with the addition of assay buffer (50 mM HEPES pH 7.5, 10 mM NaCl, 10 mM MgCl2, 0.01% Brij® 35), 1.25 mM ATP, 5 mM MgCl2 and 5 mM DTT at a cMET concentration of 2.4 μM followed by a 30 minute incubation at room temperature. […] Next, cMET enzyme (1.2 nM final) was added and the system incubated at room temperature for 20 minutes. Catalysis was initiated by the addition of ATP (50 μM final). Assays were incubated at room temperature for 2 hours then quenched by the addition of EDTA. Phosphorylated peptide product was quantified by monitoring fluorescence during capillary electrophoresis with Caliper LifeSciences LabChip 3000 under the following settings: base pressure=−0.1 psi, screen pressure=−1.2 psi, downstream voltage=−500 V, upstream voltage=−2300 V, chip type=TC372. The elution buffer was identical to the assay buffer except for the absence of DTT, FL-2 and ATP and the addition of 0.1% coating reagent (Caliper). […] Peak height was quantified and used to determine enzyme velocities.
IC50 values were calculated by non-linear least squares curve fitting of the standard IC50 equation to background-corrected cMET velocity versus compound concentration.

EBC1 = assay: Inhibition of cell viability (MTS), EBC1; assay type: cell-based; conditions: 96 hours incubation
Protocol: as §1, §2

MKN45 = assay: Inhibition of cell viability (MTS), MKN45; assay type: cell-based; conditions: 96 hours incubation
Protocol: as §1, §2

[2] = Homo sapiens, EBC-1, 96 h, EBC1 cells
[3] = Homo sapiens, MKN-45, 96 h, MKN45 cells

SMILES	EC50 (A549; Homo sapiens, A549, 96 h) [nM]	IC50 [1] [nM]	EC50 (MKN45; [3]) [nM]	EC50 (MKN45; MKN45 cells) [nM]	EC50 (A549) [nM]	EC50 (EBC1; [2]) [nM]	EC50 (A549; Homo sapiens) [nM]	EC50 (EBC1; Homo sapiens, EBC-1, EBC1 cells) [nM]	EC50 (MKN45; Homo sapiens, MKN-45, MKN45 cells) [nM]	EC50 (EBC1; EBC1 cells) [nM]
Cc1ccc2nnc(Sc3ccc4nc(NC(=O)C5CC5)cn4n3)n2c1 [Compound 42, N-(6-(6-methyl-[1,2,4]triazolo[4,3-a]pyridin-3-ylthio)imidazo[1,2-b]pyridazin-2-yl)cyclopropanecarboxamide]	> 50000	60 to 100	100 to 249			35 to 99				
Nc1cn2nc(Sc3nnc4ccccn34)ccc2n1 [Compound 114, 6-([1,2,4]triazolo[4,3-a]pyridin-3-ylthio)imidazo[1,2-b]pyridazin-2-amine]	> 50000	> 630	> 630			> 630				
O=C(Nc1cn2nc(Sc3nnc4ccccn34)ccc2n1)C1CC1 [3 (HCl Salt)]	8000 to 25000	> 100		250 to 630		100 to 199				
Cc1ccc2nnn(Cc3ccc4nc(NC(=O)C5CC5)cn4n3)c2c1 [Compound 12, N-(6-((6-methyl-1H-benzo[d][1,2,3]triazol-1-yl)methyl)imidazo[1,2-b]pyridazin-2-yl)cyclopropanecarboxamide]	> 50000	> 100	> 630			> 200				
CS(=O)(=O)c1cncc(-c2ccc3nnn(Cc4ccc5nc(NC(=O)C6CC6)cn5n4)c3c2)c1 [Compound 21]	> 50000	> 100	> 630			> 200				
O=C(Nc1cn2nc(Sc3nnc4ccc(Cl)cn34)ccc2n1)C1CC1 [Compound 9, N-(6-(6-chloro-[1,2,4]triazolo[4,3-a]pyridin-3-ylthio)imidazo[1,2-b]pyridazin-2-yl)cyclopropanecarboxamide]	8000 to 25000	60 to 100	250 to 630			100 to 199				
N#Cc1ccc2nnc(Sc3ccc4nc(NC(=O)C5CC5)cn4n3)n2c1 [Compound 6, N-(6-(6-cyano-[1,2,4]triazolo[4,3-a]pyridin-3-ylthio)imidazo[1,2-b]pyridazin-2-yl)cyclopropanecarboxamide]		> 100					> 50000	> 200	> 630	
Cc1ccc2nnc(C(C)c3ccc4nc(NC(=O)C5CC5)cn4n3)n2c1 (centres unmarked) [Compound 53, N-(6-(1-(6-methyl-[1,2,4]triazolo[4,3-a]pyridin-3-yl)ethyl)imidazo[1,2-b]pyridazin-2-yl)cyclopropanecarboxamide]	> 50000	250 to 630	250 to 630			250 to 630				
CC(c1ccc2nc(NC(=O)C3CC3)cn2n1)c1nnc2ccc(-c3cnn(C)c3)cn12 (centres unmarked) [49 (free base), N-(6-(1-(6-(1-methyl-1H-pyrazol-4-yl)-[1,2,4]triazolo[4,3-a]pyridin-3-yl)ethyl)imidazo[1,2-b]pyridazin-2-yl)cyclopropanecarboxamide]		< 30		60 to 100	> 50000					< 30
COCc1nc(-c2ccc3nnc(Sc4ccc5nc(NC(=O)C6CC6)cn5n4)n3c2)no1 [Compound 39, N-(6-(6-(5-(methoxymethyl)-1,2,4-oxadiazol-3-yl)-[1,2,4]triazolo[4,3-a]pyridin-3-ylthio)imidazo[1,2-b]pyridazin-2-yl)cyclopropanecarboxamide]	600 to 1600	60 to 100	100 to 249			35 to 99				
CC(c1ccc2nc(NC(=O)C3CC3)cn2n1)c1nnc2ccc(-c3cccc(S(C)(=O)=O)c3)cn12 (centres unmarked) [Compound 59, N-(6-(1-(6-(3-(methylsulfonyl)phenyl)-[1,2,4]triazolo[4,3-a]pyridin-3-yl)ethyl)imidazo[1,2-b]pyridazin-2-yl)cyclopropanecarboxamide]	> 50000	< 30	100 to 249			60 to 100				

Further lines, with some results ahead:

EC50 (A549; Homo sapiens, A549, 96 h) [nM]	IC50 [1] [nM]	EC50 (MKN45; [3]) [nM]	EC50 (MKN45; MKN45 cells) [nM]	EC50 (A549) [nM]	SMILES	EC50 (EBC1; [2]) [nM]	EC50 (A549; Homo sapiens) [nM]	EC50 (EBC1; Homo sapiens, EBC-1, EBC1 cells) [nM]	EC50 (MKN45; Homo sapiens, MKN-45, MKN45 cells) [nM]	EC50 (EBC1; EBC1 cells) [nM]
> 50000	< 30	< 30			N#Cc1ccc(-c2ccc3nnc(C(F)(F)c4ccc5nc(NC(=O)C6CC6)cn5n4)n3c2)cc1 [Compound 83, N-(6-((6-(4-cyanophenyl)-[1,2,4]triazolo[4,3-a]pyridin-3-yl)difluoromethyl)imidazo[1,2-b]pyridazin-2-yl)cyclopropanecarboxamide]	< 30				
> 50000	< 30	100 to 249			CC(c1ccc2nc(NC(=O)C3CC3)cn2n1)c1nnc2ccc(-c3cccc(C(N)=O)c3)cn12 (centres unmarked) [Compound 66, 3-(3-(1-(2-(cyclopropanecarboxamido)imidazo[1,2-b]pyridazin-6-yl)ethyl)-[1,2,4]triazolo[4,3-a]pyridin-6-yl)benzamide]	100 to 249				
> 50000	< 30	< 30			CC(c1ccc2nc(NC(=O)C3CC3)cn2n1)c1nnc2ccc(-c3ccc(F)c(C#N)c3)cn12 (centres unmarked) [Compound 71, N-(6-(1-(6-(3-cyano-4-fluorophenyl)-[1,2,4]triazolo[4,3-a]pyridin-3-yl)ethyl)imidazo[1,2-b]pyridazin-2-yl)cyclopropanecarboxamide]	< 30				
> 50000	< 30	< 30			O=C(Nc1cn2nc(C(F)(F)c3nnc4ccc(-c5cn[nH]c5)cn34)ccc2n1)C1CC1 [Compound 92, N-(6-((6-(1H-pyrazol-4-yl)-[1,2,4]triazolo[4,3-a]pyridin-3-yl)difluoromethyl)imidazo[1,2-b]pyridazin-2-yl)cyclopropanecarboxamide]	< 30				
> 50000	< 30	< 30			CCOc1ccc(-c2ccc3nnc(C(C)c4ccc5nc(NC(=O)C6CC6)cn5n4)n3c2)cc1 (centres unmarked) [Compound 69, N-(6-(1-(6-(4-ethoxyphenyl)-[1,2,4]triazolo[4,3-a]pyridin-3-yl)ethyl)imidazo[1,2-b]pyridazin-2-yl)cyclopropanecarboxamide]	< 30				
> 50000	< 30	< 30			COc1cccc(-c2ccc3nnc(C(F)(F)c4ccc5nc(NC(=O)C6CC6)cn5n4)n3c2)c1 [Compound 76, N-(6-(difluoro(6-(3-methoxyphenyl)-[1,2,4]triazolo[4,3-a]pyridin-3-yl)methyl)imidazo[1,2-b]pyridazin-2-yl)cyclopropanecarboxamide]	< 30				
> 50000	< 30	< 30			COc1cccc(-c2ccc3nnc(C(C)c4ccc5nc(NC(=O)C6CC6)cn5n4)n3c2)c1 (centres unmarked) [Compound 61, N-(6-(1-(6-(3-methoxyphenyl)-[1,2,4]triazolo[4,3-a]pyridin-3-yl)ethyl)imidazo[1,2-b]pyridazin-2-yl)cyclopropanecarboxamide]	< 30				
	< 30	30 to 59		8000 to 25000	CC(c1ccc2nc(NC(=O)C3CC3)cn2n1)c1nnc2ccc(-c3cnn(C)c3)cn12 (centres unmarked) [49 (HCl Salt), N-(6-(1-(6-(1-methyl-1H-pyrazol-4-yl)-[1,2,4]triazolo[4,3-a]pyridin-3-yl)ethyl)imidazo[1,2-b]pyridazin-2-yl)cyclopropanecarboxamide]	< 30				
> 50000	< 30	< 30			Cn1cc(-c2ccc3nnc(C(F)(F)c4ccc5nc(NC(=O)C6CC6)cn5n4)n3c2)cn1 [45 (HCl Salt), N-(6-(Difluoro(6-(1-methyl-1H-pyrazol-4-yl)-[1,2,4]triazolo[4,3-a]pyridin-3-yl)methyl)imidazo[1,2-b]pyridazin-2-yl)cyclopropanecarboxamide hydrochloride]	< 30				
